Tested on: Donor 4 COP Responsive T-Cell Lines
Assay: Multiplex bead cytokine assay (FlowCytomix), Donor 4 COP responsive T-cell lines
Type: cell-based, human
Parameters: IFN-γ / 1L-9 / IL-22 / IL-13: unit not given here
Conditions: for cytokine secretion: most tested Donor 4 cell lines, 20-24 hours
Procedure: The concentration of multiple cytokines was measured simultaneously using FlowCytoMix™ kits (eBioscience, San Diego Calif.). These are fluorescent bead based assays consisting of beads conjugated to anti cytokine antibodies. Beads specific for each cytokine are distinguished by size and fluorescence at 670 run. Cytokine bound to each bead is detected using a phycoerythrin conjugated antibody so that the fluorescence at 585 nm reflects the concentration of cytokine in the sample. Two kits were utilized which measured different cytokine panels. The TH1/TH2 kit measures IFN-γ, IL-1β, IL-2, IL-4, IL-5, IL-6, IL-8, IL-10, IL-12p70, TNF-α (TNF) and TNF-β (LT). The TH1/TH2/TH9/TH17/TH22 kit measures […], IL-1β, IL-2, IL-4, IL-5, IL-6, IL-9, IL-10, IL-12p70, IL-13, IL-17, IL-22, and TNF-α (TNF). Both kits were used following the manufacturer's instructions.
On Day 23 the positive wells (cell lines listed in Table 26) were transferred to a 24-well plate and restimulated with 10 μg/mL COP in the presence of mitomycin-treated autologous PBMC. IL-2 was added at Day 24. On Day 31 (after four rounds of restimulation) ten lines were restimulated with 10 μg/mL COP to confirm antigen reactivity by a cytokine secretion assay. T-cells were added at 2×10^4 cells/well in 96-well plates in X-VIVO 15 medium. Each line was separately stimulated with 10 μg/mL GMA, and 10 μg/mL COP in the presence of (2×10^5 cells/well, i.e., 1×10^6 cells/mL) mitomycin-treated autologous PBMC. Culture medium was collected after 20-24 hours for cytokine assay (FlowCytomix multiplex bead assay). The supernatants were tested in triplicate for IL-12 p70, IFN-γ, IL-2, IL-10, IL-6, IL-4, IL-5, TNF-α, and TNF-β secretion. […] Secretion of IL-2, 11-10, and IL-4 varied among the lines. All samples also secreted IL-8 (data not shown).
Culture medium from each of two Donor 4 cell lines was assayed for an extended panel of cytokines, showing production of IL-13 and IL-22 (Table 32).

[1] = T-cell line 1H9, 10 μg/mL, Day 31, medium after 20-24 hours
[2] = T-cell line 1H11, 10 μg/mL, Day 31, medium after 20-24 hours
[3] = T-cell line 205-1B4, extended cytokine multiplex assay
[4] = T-cell line 205-1B7, 10 μg/mL, Day 31, medium after 20-24 hours
[5] = T-cell line 205-1C4, 10 μg/mL, Day 31, medium after 20-24 hours
[6] = T-cell line 205-1F4, extended cytokine multiplex assay
[7] = T-cell line 205-1F5, 10 μg/mL, Day 31, medium after 20-24 hours
[8] = T-cell line 205-1G3, 10 μg/mL, Day 31, medium after 20-24 hours
[9] = T-cell line 205-1H5, 10 μg/mL, Day 31, medium after 20-24 hours
[10] = T-cell line 205-1H7, 10 μg/mL, Day 31, medium after 20-24 hours

glatiramer acetate [COP]
IFN-y [1]: 419.21 pg/mL | IL-2 [1]: <=0 pg/mL | IL-4 [1]: <=0 pg/mL | IL-5 [1]: <=0 pg/mL | IL-6 [1]: <=0 pg/mL | IL-10 [1]: <=0 pg/mL | IL-12 p70 [1]: <=0 pg/mL | TNF-α [1]: 159.6 pg/mL | TNF-β [1]: <=0 pg/mL | IFN-y [2]: 1016.21 pg/mL | IL-2 [2]: 44.94 pg/mL | IL-4 [2]: 2.09 pg/mL | IL-5 [2]: 3665.58 pg/mL | IL-6 [2]: 20.11 pg/mL | IL-10 [2]: 143.84 pg/mL | IL-12 p70 [2]: 3.68 pg/mL | TNF-α [2]: 754.13 pg/mL | TNF-β [2]: 1.55 pg/mL | 1L-9 [3]: 29 | IFN-γ [3]: 726 | IL-2 [3]: 0 | IL-4 [3]: 174 | IL-5 [3]: 3660 | IL-6 [3]: 114 | IL-10 [3]: 32 | IL-13 [3]: 19288 | IL-22 [3]: 668 | TNF-α [3]: 1336 | IFN-y [4]: 935.78 pg/mL | IL-2 [4]: 27.99 pg/mL | IL-4 [4]: 200.19 pg/mL | IL-5 [4]: 7199.83 pg/mL | IL-6 [4]: 195.27 pg/mL | IL-10 [4]: 210.01 pg/mL | IL-12 p70 [4]: 18.39 pg/mL | TNF-α [4]: 1286.09 pg/mL | TNF-β [4]: 244.68 pg/mL | IFN-y [5]: 1212.03 pg/mL | IL-2 [5]: 478.51 pg/mL | IL-4 [5]: 199.97 pg/mL | IL-5 [5]: 6457.14 pg/mL | IL-6 [5]: 159.24 pg/mL | IL-10 [5]: 50.31 pg/mL | IL-12 p70 [5]: 51.14 pg/mL | TNF-α [5]: 1529.22 pg/mL | TNF-β [5]: 69.07 pg/mL | 1L-9 [6]: 10 | IFN-γ [6]: 1393 | IL-2 [6]: 110 | IL-4 [6]: 10 | IL-5 [6]: 1440 | IL-6 [6]: 77 | IL-10 [6]: 0 | IL-13 [6]: 4502 | IL-22 [6]: 168 | TNF-α [6]: 616 | IFN-y [7]: 452.76 pg/mL | IL-2 [7]: 205.85 pg/mL | IL-4 [7]: 293.46 pg/mL | IL-5 [7]: 13727.89 pg/mL | IL-6 [7]: 318.25 pg/mL | IL-10 [7]: 323.52 pg/mL | IL-12 p70 [7]: 55.94 pg/mL | TNF-α [7]: 833.39 pg/mL | TNF-β [7]: 278.68 pg/mL | IFN-y [8]: 211.16 pg/mL | IL-2 [8]: 10.89 pg/mL | IL-4 [8]: <=0 pg/mL | IL-5 [8]: 91.11 pg/mL | IL-6 [8]: 11.79 pg/mL | IL-10 [8]: <=0 pg/mL | IL-12 p70 [8]: <=0 pg/mL | TNF-α [8]: 38.56 pg/mL | TNF-β [8]: <=0 pg/mL | IFN-y [9]: 1149.77 pg/mL | IL-2 [9]: 15.14 pg/mL | IL-4 [9]: 79.67 pg/mL | IL-5 [9]: 3106.45 pg/mL | IL-6 [9]: 57.31 pg/mL | IL-10 [9]: 28.45 pg/mL | IL-12 p70 [9]: 7.96 pg/mL | TNF-α [9]: 1260.75 pg/mL | TNF-β [9]: 88.62 pg/mL | IFN-y [10]: 1617.25 pg/mL | IL-2 [10]: 351.63 pg/mL | IL-4 [10]: 90.37 pg/mL | IL-5 [10]: 101.71 pg/mL | IL-6 [10]: 69.44 pg/mL | IL-10 [10]: 10.06 pg/mL | IL-12 p70 [10]: 11.11 pg/mL | TNF-α [10]: 1924.81 pg/mL | TNF-β [10]: 49.17 pg/mL | cytokine secretion (Day 31, 10 μg/mL): secreted IFN-γ, IL-5, and TNF-α

glatiramer acetate [GMA]
IFN-y [1]: 182.77 pg/mL | IL-2 [1]: <=0 pg/mL | IL-4 [1]: <=0 pg/mL | IL-5 [1]: <=0 pg/mL | IL-6 [1]: 74.92 pg/mL | IL-10 [1]: <=0 pg/mL | IL-12 p70 [1]: <=0 pg/mL | TNF-α [1]: 161.89 pg/mL | TNF-β [1]: <=0 pg/mL | IFN-y [2]: 929 pg/mL | IL-2 [2]: 22.78 pg/mL | IL-4 [2]: <=0 pg/mL | IL-5 [2]: 3349.8 pg/mL | IL-6 [2]: 28.28 pg/mL | IL-10 [2]: 145 pg/mL | IL-12 p70 [2]: 2.24 pg/mL | TNF-α [2]: 609.49 pg/mL | TNF-β [2]: <=0 pg/mL | 1L-9 [3]: 21 | IFN-γ [3]: 713 | IL-2 [3]: 0 | IL-4 [3]: 117 | IL-5 [3]: 3104 | IL-6 [3]: 109 | IL-10 [3]: 25 | IL-13 [3]: 13895 | IL-22 [3]: 478 | TNF-α [3]: 868 | IFN-y [4]: 828.5 pg/mL | IL-2 [4]: 10.89 pg/mL | IL-4 [4]: 187.29 pg/mL | IL-5 [4]: 6854.13 pg/mL | IL-6 [4]: 187.85 pg/mL | IL-10 [4]: 182.81 pg/mL | IL-12 p70 [4]: 44.57 pg/mL | TNF-α [4]: 1305.37 pg/mL | TNF-β [4]: 217.5 pg/mL | IFN-y [5]: 1046.32 pg/mL | IL-2 [5]: 312.13 pg/mL | IL-4 [5]: 124.7 pg/mL | IL-5 [5]: 5434.06 pg/mL | IL-6 [5]: 149.35 pg/mL | IL-10 [5]: 45.24 pg/mL | IL-12 p70 [5]: 46.89 pg/mL | TNF-α [5]: 1059.01 pg/mL | TNF-β [5]: 81.04 pg/mL | 1L-9 [6]: 7 | IFN-γ [6]: 1207 | IL-2 [6]: 76 | IL-4 [6]: 7 | IL-5 [6]: 1459 | IL-6 [6]: 73 | IL-10 [6]: 16 | IL-13 [6]: 4506 | IL-22 [6]: 186 | TNF-α [6]: 323 | IFN-y [7]: 479.26 pg/mL | IL-2 [7]: 197.46 pg/mL | IL-4 [7]: 328.72 pg/mL | IL-5 [7]: 13930.97 pg/mL | IL-6 [7]: 314.54 pg/mL | IL-10 [7]: 231.63 pg/mL | IL-12 p70 [7]: 67.53 pg/mL | TNF-α [7]: 1084.01 pg/mL | TNF-β [7]: 260.35 pg/mL | IFN-y [8]: 193.91 pg/mL | IL-2 [8]: 5.27 pg/mL | IL-4 [8]: <=0 pg/mL | IL-5 [8]: 121.17 pg/mL | IL-6 [8]: 16.67 pg/mL | IL-10 [8]: <=0 pg/mL | IL-12 p70 [8]: 2.37 pg/mL | TNF-α [8]: 68.79 pg/mL | TNF-β [8]: 17.66 pg/mL | IFN-y [9]: 902.95 pg/mL | IL-2 [9]: <=0 pg/mL | IL-4 [9]: 46.82 pg/mL | IL-5 [9]: 2534.09 pg/mL | IL-6 [9]: 52.4 pg/mL | IL-10 [9]: <=0 pg/mL | IL-12 p70 [9]: 8.78 pg/mL | TNF-α [9]: 910.83 pg/mL | TNF-β [9]: 79.8 pg/mL | IFN-y [10]: 1275.97 pg/mL | IL-2 [10]: 176.52 pg/mL | IL-4 [10]: 58.41 pg/mL | IL-5 [10]: 96.95 pg/mL | IL-6 [10]: 64.82 pg/mL | IL-10 [10]: <=0 pg/mL | IL-12 p70 [10]: 13.42 pg/mL | TNF-α [10]: 552.89 pg/mL | TNF-β [10]: 34.81 pg/mL | cytokine secretion (Day 31, 10 μg/mL): secreted IFN-γ, IL-5, and TNF-α

From patent US9995734B2, “Human T cell line assay for evaluating the immunologic identity of glatiramer acetate preparations” (Mylan Inc., priority 2013, dated 2018)
